Among the data in PMC3313677 (Biochemistry, 2012) are Ki values, retold here.

In assay [1] the target is Mandelate racemase (MR, EC 5.1.2.2). Conditions: cited from earlier work.
Assay [2] concerns the target Y54F MR (Pseudomonas putida, UniProt P11444, Y54F). As to the kind of experiment: CD-based competitive inhibition of MR variant Y54F. Format: biochemical.
For assay [3], the target named is Y54L MR (Pseudomonas putida, UniProt P11444, Y54L). Description: CD-based competitive inhibition of MR variant Y54L. It counts as biochemical.
The target of assay [4] is V22A MR (Pseudomonas putida, UniProt P11444, V22A). As to the kind of experiment: CD-based competitive inhibition of MR variant V22A. It counts as biochemical.
For assay [5], the target named is V22I MR (Pseudomonas putida, UniProt P11444, V22I). Description: CD-based competitive inhibition of MR variant V22I. It counts as biochemical.
The target of assay [6] is V22F MR (Pseudomonas putida, UniProt P11444, V22F). As to the kind of experiment: CD-based competitive inhibition of MR variant V22F. It counts as biochemical.
Assay [7] deals with T24S MR (Pseudomonas putida, UniProt P11444, T24S). As to the kind of experiment: CD-based competitive inhibition of MR variant T24S. Format: biochemical.
In assay [8] the target is A25V MR (Pseudomonas putida, UniProt P11444, A25V). Description: CD-based competitive inhibition of MR variant A25V. It counts as biochemical.
Assay [9] has as its target V26A MR (Pseudomonas putida, UniProt P11444, V26A). As to the kind of experiment: CD-based competitive inhibition of MR variant V26A. Format: biochemical.
The target in assay [10] is V26L MR (Pseudomonas putida, UniProt P11444, V26L). Description: CD-based competitive inhibition of MR variant V26L. Format: biochemical.
The target of assay [11] is V26F MR (Pseudomonas putida, UniProt P11444, V26F). Description: CD-based competitive inhibition of MR variant V26F. It counts as biochemical.
The target in assay [12] is V26A/V29L MR (Pseudomonas putida, UniProt P11444, V26A/V29L). As to the kind of experiment: CD-based competitive inhibition of MR variant V26A/V29L. Format: biochemical.
The target of assay [13] is V29A MR (Pseudomonas putida, UniProt P11444, V29A). Description: CD-based competitive inhibition of MR variant V29A. Format: biochemical.
Assay [14] has as its target V29F MR (Pseudomonas putida, UniProt P11444, V29F). As to the kind of experiment: CD-based competitive inhibition of MR variant V29F. Format: biochemical.
The target in assay [15] is V29D MR. Conditions: read-out: Ki (competitive inhibition constant); cited from earlier work.
Assay [16] deals with N197A MR. Conditions: read-out: Ki (competitive inhibition constant); cited from earlier work.
The target of assay [17] is E317Q MR. Conditions: read-out: Ki (competitive inhibition constant); cited from earlier work.
Assay [18] deals with F52W MR. Conditions: read-out: Ki (competitive inhibition constant); cited from earlier work.
Assay [19] addresses F52W/Y54W MR. Conditions: read-out: Ki (competitive inhibition constant); cited from earlier work.
The mark [20] stands for this setting: reversible competitive inhibitor of MR.

For orientation: Ki means the equilibrium dissociation constant of an inhibitor or competing ligand from its target.

Like-named read-outs stand apart in the source and are kept apart here.

Sequence of V26A MR (P11444 whole entry V26A): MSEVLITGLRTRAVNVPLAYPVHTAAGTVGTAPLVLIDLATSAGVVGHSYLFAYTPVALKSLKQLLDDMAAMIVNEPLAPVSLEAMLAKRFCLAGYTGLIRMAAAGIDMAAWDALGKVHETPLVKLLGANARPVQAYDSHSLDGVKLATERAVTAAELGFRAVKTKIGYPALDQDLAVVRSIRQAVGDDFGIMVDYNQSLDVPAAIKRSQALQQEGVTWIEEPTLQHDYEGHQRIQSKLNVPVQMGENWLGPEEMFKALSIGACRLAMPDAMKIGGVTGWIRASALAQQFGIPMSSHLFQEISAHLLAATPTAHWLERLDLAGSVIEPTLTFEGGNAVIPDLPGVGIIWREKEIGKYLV
Sequence of V22F MR (P11444 whole entry V22F): as the sequence (P11444 whole entry V26A) above, with V22F, A26V counted along it
Sequence of A25V MR (P11444 whole entry A25V): as the sequence (P11444 whole entry V26A) above, with A25V, A26V counted along it
Sequence of T24S MR (P11444 whole entry T24S): as the sequence (P11444 whole entry V26A) above, with T24S, A26V counted along it
Sequence of Y54L MR (P11444 whole entry Y54L): as the sequence (P11444 whole entry V26A) above, with A26V, Y54L counted along it
Sequence of V26F MR (P11444 whole entry V26F): as the sequence (P11444 whole entry V26A) above, with A26F counted along it
Sequence of V26L MR (P11444 whole entry V26L): as the sequence (P11444 whole entry V26A) above, with A26L counted along it
Sequence of V29A MR (P11444 whole entry V29A): as the sequence (P11444 whole entry V26A) above, with A26V, V29A counted along it
Sequence of V22A MR (P11444 whole entry V22A): as the sequence (P11444 whole entry V26A) above, with V22A, A26V counted along it
Sequence of V26A/V29L MR (P11444 whole entry V26A/V29L): as the sequence (P11444 whole entry V26A) above, with V29L counted along it
Sequence of V29F MR (P11444 whole entry V29F): as the sequence (P11444 whole entry V26A) above, with A26V, V29F counted along it
Sequence of Y54F MR (P11444 whole entry Y54F): as the sequence (P11444 whole entry V26A) above, with A26V, Y54F counted along it
Sequence of V22I MR (P11444 whole entry V22I): as the sequence (P11444 whole entry V26A) above, with V22I, A26V counted along it

`O=CN(O)c1ccccc1` [N-hydroxyformanilide]: the Ki in assay [1] (setting [20]) was 2.8 µM.

Turning to `O=NN(O)c1ccccc1` [cupferron], the Ki in assay [1] (setting [20]) was 2.7 µM.

`C[C@@](O)(C(=O)O)c1ccccc1` [(S)-atrolactate]: the Ki in [1] (ground state analogue, MR) is 150 µM.

In the case of `O=P(O)(O)C(O)c1ccccc1` (stereo not drawn) [α-hydroxybenzylphosphonate], the Ki in [1] (setting [20]) is 4.7 µM.

Consider `CC(=O)NO` [acetohydroxamate], for which the Ki in [1] (MR) is 27000 µM.

For the molecule `O=C(NO)c1ccccc1` [benzohydroxamate], the Ki in assay [2] turned out to be 13.1 ± 1.1 µM; in [3], 25.7 ± 1.9 µM; in assay [4], 1080 ± 460 µM; in assay [5], 29.2 ± 5.2 µM; in assay [6], 229 ± 86.6 µM; in [7] it was 209 ± 9.9 µM. The Ki came out at 611 ± 12.2 µM in assay [8]; 69.3 ± 2.2 µM in [9]; 440 ± 26.9 µM in assay [10]; 462 ± 31.7 µM in assay [11]; 79.2 ± 3.6 µM in assay [12]; 179 ± 23.3 µM in [13]. Moreover, the Ki was 40.1 ± 0.2 µM in assay [14]; 2900 ± 700 µM in [15]; 216 ± 6 µM in assay [16]; 760 ± 31 µM in assay [17]; 63 ± 10 µM in assay [18]; 640 ± 190 µM in assay [19]. Besides, the Ki in [1] (setting [20]) was 9.3 µM.
